39 compounds from patent publication US10065970B2 (Genentech, Inc., priority 2015, dated 2018) can be followed below.

pKi: −log10 of the molar value.

The target in one test is PI3Kα (alpha) (Homo sapiens (Human), UniProt P42336). Put plainly: p110α (alpha) PI3K Binding Assay (ADP-Glo lipid kinase reaction). The note with it: PI3K alpha 0.2 nM, ATP 40 μM, PIP2:3PS 50 μM, 120 min, room temperature; Ki by Morrison Equation; read-out: PI3Kα-(alpha) ATP (Ki) micromolar. It is filed as biochemical. The procedure: The ability of a compound of the invention to act as an inhibitor of PI3Kα was determined using the methods of Example 901.
PI3Kα (alpha), sequence (P42336 whole entry): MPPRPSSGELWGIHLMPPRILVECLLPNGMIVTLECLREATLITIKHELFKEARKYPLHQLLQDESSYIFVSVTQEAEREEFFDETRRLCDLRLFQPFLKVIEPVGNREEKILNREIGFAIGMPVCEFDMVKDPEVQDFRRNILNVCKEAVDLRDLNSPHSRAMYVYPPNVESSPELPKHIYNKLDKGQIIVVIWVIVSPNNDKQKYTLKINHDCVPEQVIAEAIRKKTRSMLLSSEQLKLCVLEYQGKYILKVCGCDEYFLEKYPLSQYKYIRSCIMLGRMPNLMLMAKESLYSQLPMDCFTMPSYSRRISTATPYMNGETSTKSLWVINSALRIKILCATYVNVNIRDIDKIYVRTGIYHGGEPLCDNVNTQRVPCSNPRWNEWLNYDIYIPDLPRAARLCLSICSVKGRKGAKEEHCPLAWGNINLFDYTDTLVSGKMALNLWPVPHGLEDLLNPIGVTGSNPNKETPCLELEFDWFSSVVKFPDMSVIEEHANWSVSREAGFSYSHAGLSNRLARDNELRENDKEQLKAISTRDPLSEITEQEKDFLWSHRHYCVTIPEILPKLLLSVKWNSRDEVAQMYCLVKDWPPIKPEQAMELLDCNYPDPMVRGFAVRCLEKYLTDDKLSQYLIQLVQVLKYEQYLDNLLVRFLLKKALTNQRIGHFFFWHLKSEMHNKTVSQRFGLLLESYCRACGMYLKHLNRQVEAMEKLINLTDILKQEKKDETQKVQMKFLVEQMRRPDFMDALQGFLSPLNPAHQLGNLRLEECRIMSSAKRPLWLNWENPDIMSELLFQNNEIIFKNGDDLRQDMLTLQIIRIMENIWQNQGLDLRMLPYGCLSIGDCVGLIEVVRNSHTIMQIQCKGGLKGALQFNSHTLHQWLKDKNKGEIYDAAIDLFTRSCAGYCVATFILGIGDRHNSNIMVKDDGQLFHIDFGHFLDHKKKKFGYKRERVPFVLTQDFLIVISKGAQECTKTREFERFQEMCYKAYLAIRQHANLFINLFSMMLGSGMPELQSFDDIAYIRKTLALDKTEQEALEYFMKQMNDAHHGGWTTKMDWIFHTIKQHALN
PI3Kα (alpha), sequence (P27986 whole entry partner): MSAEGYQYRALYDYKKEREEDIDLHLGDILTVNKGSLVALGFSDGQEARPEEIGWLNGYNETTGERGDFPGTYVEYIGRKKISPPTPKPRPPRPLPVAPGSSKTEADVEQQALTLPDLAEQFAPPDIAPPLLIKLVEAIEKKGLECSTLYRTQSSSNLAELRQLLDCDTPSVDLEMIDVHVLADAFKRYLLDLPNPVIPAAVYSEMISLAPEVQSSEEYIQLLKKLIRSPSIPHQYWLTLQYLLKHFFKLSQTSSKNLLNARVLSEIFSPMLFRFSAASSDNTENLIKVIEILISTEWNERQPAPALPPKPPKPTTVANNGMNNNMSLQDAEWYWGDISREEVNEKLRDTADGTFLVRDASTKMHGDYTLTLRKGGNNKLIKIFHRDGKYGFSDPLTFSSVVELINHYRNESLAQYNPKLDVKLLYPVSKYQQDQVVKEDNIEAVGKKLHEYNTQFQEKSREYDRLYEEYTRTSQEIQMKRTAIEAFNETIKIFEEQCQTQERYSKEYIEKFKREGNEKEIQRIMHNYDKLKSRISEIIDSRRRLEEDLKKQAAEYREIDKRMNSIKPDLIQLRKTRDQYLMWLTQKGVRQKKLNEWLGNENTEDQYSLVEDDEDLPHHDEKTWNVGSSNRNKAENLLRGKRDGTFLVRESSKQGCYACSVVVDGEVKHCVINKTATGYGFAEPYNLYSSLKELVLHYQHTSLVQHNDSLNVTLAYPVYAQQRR
PI3K Binding assays are intended for determining the biochemical potency of small molecule PI3K inhibitors. The PI3K lipid kinase reaction is performed in the presence of PIP2:3PS lipid substrate (Promega #V1792) and ATP. Following the termination if the kinase reaction, turnover of ATP to ADP by the phosphorylation of the lipid substrate is detected using the Promega ADP-Glo™ (Promega #V1792) assay. Reactions are carried out using the following conditions:
After 120 minutes of reaction time, the kinase reaction is terminated. Any ATP remaining after the reaction is depleted, leaving only ADP. Then the Kinase Detection Reagent is added to convert ADP to ATP, which is used in a coupled luciferin/luciferase reaction. The luminescent output is measured and is correlated with kinase activity.
All reactions are carried out at room temperature. A 3 μl mixture (1:1) of enzyme/lipid substrate solution is added to a 384 well white assay plate (Perkin Elmer #6007299) containing 50 nl of test compound or DMSO only for untreated controls. The reaction is started by the addition of 2 μl ATP/MgCl2. The kinase reaction buffer contains 50 mM HEPES, 50 mM NaCl, 3 mM MgCl2, 0.01% BSA, 1% DMSO, and enzyme and substrate concentrations as indicated in the above table. The reaction is stopped by the addition of 10 μL ADP-Glo reagent. Plates are read in a Perkin Elmer Envision system using luminescence mode. 10 point dose response curves are generated for each test compound. Ki values for each compound are determined using the Morrison Equation.
Background: ADP-Glo turns the ADP formed in a reaction into a luminescent signal.
For orientation: pKi means the negative decadic logarithm of the Ki, by convention in mol/L. `Nc1nc2cc(-c3nc4cc(N[C@H]5C[C@H](F)C5)cc5c4n3CCCO5)ccc2o1` (single isomer, unassigned) [Example 202, 1-(2-Aminobenzo[d]oxazol-5-yl)-N-((1r,3r)-3-fluorocyclobutyl)-8,9-dihydro-7H-6-oxa-2,9a-diazabenzo[cd]azulen-4-amine]: the pKi was 9.25.
Same read-out and setting: to `Nc1nc2cc(-c3nc4cc(N[C@H]5C[C@@H](F)C5)cc5c4n3CCCO5)ccc2o1` (single isomer, unassigned) [Example 203, 1-(2-Aminobenzo[d]oxazol-5-yl)-N-((1s,3s)-3-fluorocyclobutyl)-8,9-dihydro-7H-6-oxa-2,9a-diazabenzo[cd]azulen-4-amine] belongs 8.86; to `NC(=O)[C@H](C1CC1)n1cc(-c2cc3c4c(c2)nc(-c2ccc5oc(N)nc5c2)n4CCCO3)cn1` (single isomer, unassigned) [Example 230], 9.51.
The same measure, in the same setting: to `NC(=O)[C@@H](C1CC1)n1cc(-c2cc3c4c(c2)nc(-c2ccc5oc(N)nc5c2)n4CCCO3)cn1` (single isomer, unassigned) [Example 231] belongs 9.36; to `COC[C@](C)(C(N)=O)n1cc(-c2cc3c4c(c2)nc(-c2ccc5oc(N)nc5c2)n4CCCO3)cn1` (single isomer, unassigned) [Example 232], 9.51.
Still for that read-out and setting: to `COC[C@@](C)(C(N)=O)n1cc(-c2cc3c4c(c2)nc(-c2ccc5oc(N)nc5c2)n4CCCO3)cn1` (single isomer, unassigned) [Example 233] belongs 9.92; to `CC[C@@H](Oc1cc2c3c(c1)nc(-c1ccc(-c4nc[nH]n4)cc1)n3CCCCO2)C(N)=O` (single isomer, unassigned) [Example 267], 8.89.
Take `CC[C@H](Oc1cc2c3c(c1)nc(-c1ccc(-c4nc[nH]n4)cc1)n3CCCCO2)C(N)=O` (single isomer, unassigned) [Example 268]: the negative-log Ki (pKi) is 10.67.
As to `C[C@@H](Oc1cc2c3c(c1)nc(-c1ccc4sc(N)nc4c1)n3CCCCO2)C(N)=O` (single isomer, unassigned) [Example 275], the pKi was 9.12.
Still for that read-out and setting: to `C[C@H](Oc1cc2c3c(c1)nc(-c1ccc4sc(N)nc4c1)n3CCCCO2)C(N)=O` (single isomer, unassigned) [Example 276] belongs 9.95; to `C[C@H](Oc1cc2c3c(c1)nc(-c1cc4sc(N)nc4cc1F)n3CCCCO2)C(N)=O` (single isomer, unassigned) [Example 277], 9.68.
On the same count and under the same terms, to `C[C@@H](Oc1cc2c3c(c1)nc(-c1cc4sc(N)nc4cc1F)n3CCCCO2)C(N)=O` (single isomer, unassigned) [Example 278] belongs 8.34; to `NC(=O)[C@H](Oc1cc2c3c(c1)nc(-c1cc(F)c4nc(N)sc4c1)n3CCCCO2)C1CC1` (single isomer, unassigned) [Example 279], 8.99.
`NC(=O)[C@@H](Oc1cc2c3c(c1)nc(-c1cc(F)c4nc(N)sc4c1)n3CCCCO2)C1CC1` (single isomer, unassigned) [Example 280]: the pKi was above 10.70.
Turning to `NC(=O)[C@@H](Oc1cc2c3c(c1)nc(-c1ccc4nc(N)sc4c1)n3CCCCO2)C1CC1` (single isomer, unassigned) [Example 281], the negative-log Ki (pKi) was 10.57.
The same measure, in the same setting: to `NC(=O)[C@H](Oc1cc2c3c(c1)nc(-c1ccc4nc(N)sc4c1)n3CCCCO2)C1CC1` (single isomer, unassigned) [Example 282] belongs 8.26; to `C[C@H](Oc1cc2c3c(c1)nc(-c1ccc4nc(N)sc4c1F)n3CCCCO2)C(N)=O` (single isomer, unassigned) [Example 286], 10.14.
Same read-out and setting: to `C[C@@H](Oc1cc2c3c(c1)nc(-c1ccc4nc(N)sc4c1F)n3CCCCO2)C(N)=O` (single isomer, unassigned) [Example 287] belongs 8.77; to `CC[C@@H](C(N)=O)n1cc(-c2cc3c4c(c2)nc(-c2ccc5oc(N)nc5n2)n4CCCCO3)cn1` (single isomer, unassigned) [Example 301], 10.42; to `CC[C@H](C(N)=O)n1cc(-c2cc3c4c(c2)nc(-c2ccc5oc(N)nc5n2)n4CCCCO3)cn1` (single isomer, unassigned) [Example 302], 9.99.
Consider `COC[C@H](Oc1cc2c3c(c1)nc(-c1ccc4nc(N)sc4c1)n3CCCCO2)C(N)=O` (single isomer, unassigned) [Example 303], for which the negative-log Ki (pKi) was 8.25.
Still for that read-out and setting: to `COC[C@@H](Oc1cc2c3c(c1)nc(-c1ccc4nc(N)sc4c1)n3CCCCO2)C(N)=O` (single isomer, unassigned) [Example 304] belongs 9.90; to `NC(=O)[C@@H](Oc1cc2c3c(c1)nc(-c1ccc(-c4ncn[nH]4)c(F)c1)n3CCCCO2)C1CC1` (single isomer, unassigned) [Example 305], above 10.70.
Take `NC(=O)[C@H](Oc1cc2c3c(c1)nc(-c1ccc(-c4ncn[nH]4)c(F)c1)n3CCCCO2)C1CC1` (single isomer, unassigned) [Example 306]: the pKi was 9.14.
With `COC[C@@H](Oc1cc2c3c(c1)nc(-c1ccc4nc(N)sc4n1)n3CCCCO2)C(N)=O` (single isomer, unassigned) [Example 314], the pKi was 9.13.
On the same count and under the same terms, to `COC[C@H](Oc1cc2c3c(c1)nc(-c1ccc4nc(N)sc4n1)n3CCCCO2)C(N)=O` (single isomer, unassigned) [Example 315] belongs above 10.70.
As to `Nc1nc2cc(-c3nc4cc(Br)cc5c4n3CCCO5)ccc2o1` [Example 101, 5-(4-Bromo-8,9-dihydro-7H-6-oxa-2,9a-diazabenzo[cd]azulen-1-yl)benzo [d]oxazol 2-amine], the negative logarithm of the Ki (pKi) was 8.11.
On the same count and under the same terms, to `Cc1nc2nc(-c3nc4cc(Br)cc5c4n3CCCO5)ccc2o1` [Example 102, 4-bromo-1-(2-methyloxazolo[4,5-b]pyridin-5-yl)-8,9-dihydro-7H-6-oxa-2,9a-diazabenzo[cd]azulene] belongs 6.49; to `Cc1nc2cc(-c3nc4cc(N5CCCC5C(N)=O)cc5c4n3CCCO5)ccc2o1` (stereo not drawn) [Example 103, 1-(1-(2-methylbenzo[d]oxazol-5-yl)-8,9-dihydro-7H-6-oxa-2,9a-diazabenzo[cd]azulen-4-yl)pyrrolidine-2-carboxamide], 7.79.
Same read-out and setting: to `C[C@H](Nc1cc2c3c(c1)nc(-c1ccc4oc(N)nc4c1)n3CCCO2)C(N)=O` [Example 105, (S)-2-((1-(2-Aminobenzo[d]oxazol-5-yl)-8,9-dihydro-7H-6-oxa-2,9a-diazabenzo[cd]azulen-4-yl)amino)propanamide] belongs 10.49; to `C[C@H](Nc1cc2c3c(c1)nc(-c1ccccc1)n3CCCO2)C(N)=O` [Example 106, (S)-2-((1-phenyl-8,9-dihydro-7H-6-oxa-2,9a-diazabenzo[cd]azulen-4-yl)amino)propanamide], 6.89; to `C[C@@H](Nc1cc2c3c(c1)nc(-c1ccc4oc(N)nc4c1)n3CCCO2)C(N)=O` [Example 107, (R)-2-((1-(2-Aminobenzo[d]oxazol-5-yl)-8,9-dihydro-7H-6-oxa-2,9a-diazabenzo[cd]azulen-4-yl)amino)propanamide], 9.24.
The same measure, in the same setting: to `C[C@H](Nc1cc2c3c(c1)nc(-c1cccnc1)n3CCCO2)C(N)=O` [Example 108, (S)-2-((1-(Pyridin-3-yl)-8,9-dihydro-7H-6-oxa-2,9a-diazabenzo[cd]azulen-4-yl)amino)propanamide] belongs 7.66; to `C[C@H](Nc1cc2c3c(c1)nc(-c1ccncn1)n3CCCO2)C(N)=O` [Example 109, (S)-2-((1-(pyrimidin-4-yl)-8,9-dihydro-7H-6-oxa-2,9a-diazabenzo[cd]azulen-4-yl)amino)propanamide], 7.61.
Turning to `C[C@H](Nc1cc2c3c(c1)nc(-c1ccc(C#N)cn1)n3CCCO2)C(N)=O` [Example 110, (S)-2-((1-(5-Cyanopyridin-2-yl)-8,9-dihydro-7H-6-oxa-2,9a-diazabenzo[cd]azulen-4-yl)amino)propanamide], the pKi was 6.58.
Take `COc1ccc(-c2nc3cc(N[C@@H](C)C(N)=O)cc4c3n2CCCO4)cn1` [Example 111, (S)-2-((1-(6-Methoxypyridin-3-yl)-8,9-dihydro-7H-6-oxa-2,9a-diazabenzo[cd]azulen-4-yl)amino)propanamide]: the pKi was 7.94.
Still for that read-out and setting: to `C[C@H](Nc1cc2c3c(c1)nc(-c1ccccn1)n3CCCO2)C(N)=O` [Example 112, (S)-2-((1-(Pyridin-2-yl)-8,9-dihydro-7H-6-oxa-2,9a-diazabenzo[cd]azulen-4-yl)amino)propanamide] belongs 6.80.

The test is the same for the next values; noted with them: read-out: PI3Kα-(alpha) ATP (Ki) micromolar.
Consider `CC[C@@H](C(N)=O)n1cc(-c2cc3c4c(c2)nc(-c2ccc5oc(N)nc5n2)n4CCCO3)cn1` (single isomer, unassigned) [Example 311], for which the pKi was 10.51.
The same measure, in the same setting: to `CC[C@H](C(N)=O)n1cc(-c2cc3c4c(c2)nc(-c2ccc5oc(N)nc5n2)n4CCCO3)cn1` (single isomer, unassigned) [Example 312] belongs 10.41.
